{"source": "patent US20160030415A1", "about": "“TREATMENT AND PROPHYLAXIS OF KIDNEY DISEASES” (priority 2013, published 2016)", "key": {"[1]": {"test_system": "Streptozotocin (STZ) induced diabetic rats", "assay": "Study 2: HCQ and its combination with Losartan in comparison with anti-diabetic control (Glimepiride) in renal damage", "assay_type": "in vivo, Wistar rats", "experimental": "The Efficacy of the drugs was tested in two different models, one involving comparison with diabetic control (i.e. Diabetic Rats not treated with any medication) and the other involving comparison with the anti-diabetic control group (i.e. Diabetic rats administered Glimepiride) in two separate studies. 30 Wistar rats of either sex weighing 150-250 g were divided randomly into 5 groups consisting of 6 animals each. Diabetes was induced in rats by single administration of Streptozotocin (STZ)(55 mg/kg/i.p) dissolved in 0.1 M-citrate buffer, pH 4.5. Group 1 (normal control) consisted of normal rats that neither received streptozotocin nor any test drug; Group 2 served as Anti-Diabetic control wherein diabetic rats were treated with antidiabetic drug Glimepiride. Group 3 was diabetic rats treated with Losartan (11 mg/kg); Group 4 was diabetic rats treated with Hydroxychloroquine (45 mg/kg) and Group 5 was diabetic rats treated with combination of Hydroxychloroquine (45 mg/kg) and Losartan (11 mg/kg). The study drugs were dissolved/suspended in distilled water and administered orally once a day for eight weeks. The diabetes mellitus induced nephropathy was assessed by estimating the level of serum creatinine and total serum protein content after completion of eighth week of study. TBARS and Total Protein were measured as markers of renal oxidative stress in Kidney Homogenate after completion of eighth week of study."}, "[2]": {"test_system": "STZ induced diabetic nephropathy in rats", "assay": "Study 4: HCQ and its combination with Losartan, Telmisartan, Azilsartan and Ramipril, with Glimepiride control", "assay_type": "in vivo, Wistar rats", "details": "dose mg/kg: HCQ 70, GLM 1", "experimental": "The methods described in Terri et al, Diabetes Volume, 1997, 46:1612-1618, and Takashi et al, Jpn J. Pharmacol, 1997, 75, 59-64, were followed for inducing Diabetes in rats by injecting Streptozotocin. The Efficacy of the drugs was tested in two different models, one involving comparison with diabetic control (i.e. Diabetic Rats not treated with any medication) and the other involving comparison with the anti-diabetic control group (i.e. Diabetic rats administered Glimepiride) in two separate studies.\nWistar rats of either sex weighing 150-200 g were divided randomly into 28 groups consisting of 6 animals each. Diabetes was induced in rats by single administration of streptozotocin (55 mg/kg/i.p) dissolved in 0.1 M-citrate buffer, pH 4.5. Group 1 (normal control) consisted of normal rats that neither received streptozotocin nor any test drug; Group 2 served as Diabetic control; Group 3 was diabetic rats treated with Hydroxychloroquine (35 mg/kg); Group 4 was diabetic rats treated with Hydroxychloroquine (45 mg/kg) and Group 5 was diabetic rats treated with Hydroxychloroquine (70 mg/kg); Group 6 was diabetic rats treated with Losartan (5.5 mg/kg); Group 7 was diabetic rats treated with Losartan (11 mg/kg); Group 8 was diabetic rats treated with combination of Losartan (5.5 mg/kg) and Hydroxychloroquine (45 mg/kg); Group 9 was diabetic rats treated with combination of Losartan (11 mg/kg) and Hydroxychloroquine (35 mg/kg); Group 10 was diabetic rats treated with Ramipril (0.6 mg/kg); Group 11 was diabetic rats treated with Ramipril (0.3 mg/kg); Group 12 was diabetic rats treated with combination of Ramipril (0.6 mg/kg) and Hydroxychloroquine (35 mg/kg); Group 13 was diabetic rats treated with combination of Ramipril (0.3 mg/kg) and Hydroxychloroquine (45 mg/kg); Group 14 was diabetic rats treated with combination of Ramipril (0.6 mg/kg) and Hydroxychloroquine (45 mg/kg); Group 15 was diabetic rats treated with combination of Ramipril (0.3 mg/kg) and Hydroxychloroquine (35 mg/kg); Group 16 was diabetic rats treated with Telmisartan (9.5 mg/kg); Group 17 was diabetic rats treated with Telmisartan (4.5 mg/kg); Group 18 was diabetic rats treated with combination of Telmisartan (9.5 mg/kg) and Hydroxychloroquine (35 mg/kg); Group 19 was diabetic rats treated with combination of Telmisartan (4.5 mg/kg) and Hydroxychloroquine (45 mg/kg); Group 20 was diabetic rats treated with combination of Telmisartan (9.5 mg/kg) and Hydroxychloroquine (45 mg/kg); Group 21 was diabetic rats treated with combination of Telmisartan (4.5 mg/kg) and Hydroxychloroquine (35 mg/kg); Group 22 was diabetic rats treated with Azilsartan (4.5 mg/kg); Group 23 was diabetic rats treated with Azilsartan (2.5 mg/kg); Group 24 was diabetic rats treated with combination of Azilsartan (4.5 mg/kg) and Hydroxychloroquine (35 mg/kg); Group 25 was diabetic rats treated with combination of Azilsartan (2.5 mg/kg) and Hydroxychloroquine (45 mg/kg); Group 26 was diabetic rats treated with combination of Azilsartan (4.5 mg/kg) and Hydroxychloroquine (45 mg/kg); Group 27 was diabetic rats treated with combination of Azilsartan (2.5 mg/kg) and Hydroxychloroquine (35 mg/kg); Group 28 served as Anti-Diabetic control wherein diabetic rats were treated with antidiabetic drug Glimepiride (GLM) (1 mg/kg).\nThe study drugs were dissolved/suspended in vehicle and administered orally once a day for eight weeks. The diabetes mellitus induced nephropathy was assessed by estimating the level of serum urea, serum creatinine and total serum protein content after completion of eighth week of study. TBARS, GSH and Total Protein were measured as markers of renal oxidative stress in Kidney Homogenate after completion of eighth week of study. Blood glucose levels were also assessed at weekly interval."}, "[3]": {"details": "Glimepiride 8 mg/kg alone (antidiabetic control) or with Losartan 11 mg/kg and/or Hydroxychloroquine 45 mg/kg, oral once daily"}, "[4]": {"details": "after 8th week, Glimepiride 8 mg/kg alone or with Losartan 11 mg/kg and/or Hydroxychloroquine 45 mg/kg"}, "[5]": {"details": "kidney homogenate, after 8th week, Glimepiride 8 mg/kg alone or with Losartan 11 mg/kg and/or Hydroxychloroquine 45 mg/kg"}, "[6]": {"details": "kidney homogenate, after 8th week"}}, "note": "Marks after values point to notes of the source that are not given here.", "data": [{"compound": "CCC1=C(C)CN(C(=O)NCCc2ccc(S(=O)(=O)NC(=O)N[C@H]3CC[C@H](C)CC3)cc2)C1=O", "note": "[Glimepiride]", "values": [{"measurement": "Serum Creatinine after 8th week", "setting": "[1]; [3]", "value": 3.17, "unit": "mg/dL"}, {"measurement": "Serum Creatinine after 8th week (% Control)", "setting": "[1]; [3]", "value": "(100) % Control"}, {"measurement": "Total Serum Protein Levels after 8th week", "setting": "[1]; [3]", "value": 4.73, "unit": "g/dL"}, {"measurement": "Total Serum Protein Levels after 8th week (% Control)", "setting": "[1]; [3]", "value": "(100) % Control"}, {"measurement": "Total Protein in Kidney Homogenate (% Control)", "setting": "[1]; [4]", "value": "(100) % Control"}, {"measurement": "Total Protein in Kidney Homogenate Mean", "setting": "[1]; [4]", "value": 926.67, "unit": "µg/mL"}, {"measurement": "TBARS (% Control)", "setting": "[1]; [5]", "value": "(100) % Control"}, {"measurement": "TBARS Mean", "setting": "[1]; [5]", "value": 0.82, "unit": "nM/mg"}, {"measurement": "HDL", "setting": "[2]; after 8th week", "value": "29 ± 1.41", "unit": "mg/dL"}, {"measurement": "TC", "setting": "[2]; after 8th week", "value": "142 ± 2.68", "unit": "mg/dL"}, {"measurement": "TG", "setting": "[2]; after 8th week", "value": "96.5 ± 2.35", "unit": "mg/dL"}, {"measurement": "Glucose Day1", "setting": "[2]; blood, Day1", "value": "276.83 ± 19.14", "unit": "mg/dL"}, {"measurement": "Glucose Day14", "setting": "[2]; blood, Day14", "value": "216.67 ± 18.44", "unit": "mg/dL"}, {"measurement": "Glucose Day28", "setting": "[2]; blood, Day28", "value": "179.17 ± 7.36", "unit": "mg/dL"}, {"measurement": "Glucose Day42", "setting": "[2]; blood, Day42", "value": "159 ± 6.07", "unit": "mg/dL"}, {"measurement": "Glucose Day56", "setting": "[2]; blood, Day56", "value": "149.17 ± 7.83", "unit": "mg/dL"}, {"measurement": "GSH", "setting": "[2]; [6]", "value": "2.36 ± 0.64", "unit": "nM/mg"}, {"measurement": "TBARS", "setting": "[2]; [6]", "value": "0.5 ± 0.13", "unit": "nM/mg"}, {"measurement": "Total protein kidney", "setting": "[2]; [6]", "value": "856.83 ± 18.18", "unit": "µg/mL"}, {"measurement": "Creatinine", "setting": "[2]; serum, after 8th week", "value": "3.21 ± 0.23", "unit": "mg/dL"}, {"measurement": "Total protein", "setting": "[2]; serum, after 8th week", "value": "4.8 ± 0.18", "unit": "g/dL"}, {"measurement": "Urea", "setting": "[2]; serum, after 8th week", "value": "43 ± 2.1*^ mg/dl"}]}]}
